# In ChEMBL document CHEMBL4007467, “Effects of 6-paradol, an unsaturated ketone from gingers, on cytochrome P450-mediated drug metabolism” (Bioorg Med Chem Lett, 2017):
# Experiments:
# Assay type in all cases: ADME
# [1] = target: T1, CYP2D6 (Homo sapiens, UniProt P10635); assay: Inhibition of CYP2D6 in human liver microsomes assessed as enzyme-mediated metabolite formation at 3 uM using dextromethorphan as substrate incubated for 5 mins followed by NADPH addition measured after 30 mins by LC-MS/MS analysis relative to control; parameters: scale not given: the % may be the effect or the level left; settings: probe dextromethorphan, read-out: Activity
# [2] = target: T2, CYP2A6 (Homo sapiens, UniProt P11509); assay: Inhibition of CYP2A6 in human liver microsomes assessed as enzyme-mediated metabolite formation at 30 uM using coumarin as substrate preincubated for 20 mins followed by substrate addition measured after 30 mins in presence of NADPH by LC-MS/MS analysis relative to control; parameters: scale not given: the % may be the effect or the level left; settings: probe coumarin, read-out: Activity
# T2 sequence (P11509 whole entry): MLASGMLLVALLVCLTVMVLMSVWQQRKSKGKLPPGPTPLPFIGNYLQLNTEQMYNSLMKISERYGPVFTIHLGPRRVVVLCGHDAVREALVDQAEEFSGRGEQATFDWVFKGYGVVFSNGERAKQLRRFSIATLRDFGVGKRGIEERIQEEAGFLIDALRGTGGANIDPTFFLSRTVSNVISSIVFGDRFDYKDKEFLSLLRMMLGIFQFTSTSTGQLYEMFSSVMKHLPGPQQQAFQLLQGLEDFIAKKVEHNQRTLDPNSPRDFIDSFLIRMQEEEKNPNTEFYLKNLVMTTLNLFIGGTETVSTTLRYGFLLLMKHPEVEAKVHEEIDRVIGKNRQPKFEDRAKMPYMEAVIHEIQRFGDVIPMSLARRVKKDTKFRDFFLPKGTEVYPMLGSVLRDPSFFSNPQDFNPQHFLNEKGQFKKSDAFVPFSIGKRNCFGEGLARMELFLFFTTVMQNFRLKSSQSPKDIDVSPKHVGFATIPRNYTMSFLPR
# [3] = target: T1, CYP2D6; assay: Inhibition of CYP2D6 in human liver microsomes assessed as enzyme-mediated metabolite formation at 30 uM using dextromethorphan as substrate incubated for 5 mins followed by NADPH addition measured after 30 mins by LC-MS/MS analysis relative to control; parameters: scale not given: the % may be the effect or the level left; settings: probe dextromethorphan, read-out: Activity
# [4] = target: Cytochrome P450 3A4 (Homo sapiens, UniProt P08684); assay: Inhibition of CYP3A4 in human liver microsomes assessed as enzyme-mediated metabolite formation using midazolam as substrate incubated for 5 mins followed by NADPH addition measured after 30 mins by LC-MS/MS analysis
# [5] = target: T3, Cytochrome P450 1A2 (Homo sapiens, UniProt P05177); assay: Inhibition of CYP1A2 in human liver microsomes assessed as enzyme-mediated metabolite formation using phenacetin as substrate incubated for 5 mins followed by NADPH addition measured after 30 mins by LC-MS/MS analysis
# T3 sequence (P05177 whole entry): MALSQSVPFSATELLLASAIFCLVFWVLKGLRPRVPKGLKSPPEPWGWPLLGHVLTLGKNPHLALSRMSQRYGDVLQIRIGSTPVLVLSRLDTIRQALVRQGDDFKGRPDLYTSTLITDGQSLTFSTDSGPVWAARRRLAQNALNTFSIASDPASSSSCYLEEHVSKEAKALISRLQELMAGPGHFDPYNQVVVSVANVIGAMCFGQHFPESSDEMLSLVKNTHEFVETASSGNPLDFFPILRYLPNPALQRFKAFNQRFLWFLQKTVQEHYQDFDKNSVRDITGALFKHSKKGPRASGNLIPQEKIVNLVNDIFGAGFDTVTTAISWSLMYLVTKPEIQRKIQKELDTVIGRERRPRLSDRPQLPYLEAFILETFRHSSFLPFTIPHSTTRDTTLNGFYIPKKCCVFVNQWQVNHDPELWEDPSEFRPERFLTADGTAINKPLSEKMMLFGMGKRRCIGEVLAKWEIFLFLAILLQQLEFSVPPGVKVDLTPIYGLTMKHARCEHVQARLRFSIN
# [6] = target: T4, CYP2C9 (Homo sapiens, UniProt P11712); assay: Inhibition of CYP2C9 in human liver microsomes assessed as enzyme-mediated metabolite formation at 10 uM using diclofenac as substrate preincubated for 20 mins followed by substrate addition measured after 30 mins in presence of NADPH by LC-MS/MS analysis relative to control; parameters: scale not given: the % may be the effect or the level left; settings: probe diclofenac, read-out: Activity
# [7] = target: T5, CYP3A4 (Homo sapiens, UniProt P08684); assay: Inhibition of CYP3A4 in human liver microsomes assessed as enzyme-mediated metabolite formation at 0.1 uM using testosterone as substrate incubated for 5 mins followed by NADPH addition measured after 30 mins by LC-MS/MS analysis relative to control; parameters: scale not given: the % may be the effect or the level left; settings: probe testosterone, read-out: Activity
# [8] = target: T4, CYP2C9; assay: Inhibition of CYP2C9 in human liver microsomes assessed as enzyme-mediated metabolite formation at 0.3 uM using diclofenac as substrate preincubated for 20 mins followed by substrate addition measured after 30 mins in presence of NADPH by LC-MS/MS analysis relative to control; parameters: scale not given: the % may be the effect or the level left; settings: probe diclofenac, read-out: Activity
# [9] = target: Cytochrome P450 2C9 (Homo sapiens, UniProt P11712); assay: Inhibition of CYP2C9 in human liver microsomes assessed as enzyme-mediated metabolite formation using diclofenac as substrate incubated for 5 mins followed by NADPH addition measured after 30 mins by LC-MS/MS analysis
# [10] = target: CYP2C19 (Homo sapiens, UniProt P33261); assay: Inhibition of CYP2C19 in human liver microsomes assessed as enzyme-mediated metabolite formation at 0.1 uM using (S)-mephenytoin as substrate incubated for 5 mins followed by NADPH addition measured after 30 mins by LC-MS/MS analysis relative to control; parameters: scale not given: the % may be the effect or the level left; settings: probe (S)-mephenytoin, read-out: Activity
# [11] = target: T5, CYP3A4; assay: Inhibition of CYP3A4 in human liver microsomes assessed as enzyme-mediated metabolite formation at 10 uM using midazolam as substrate preincubated for 20 mins followed by substrate addition measured after 30 mins in presence of NADPH by LC-MS/MS analysis relative to control; parameters: scale not given: the % may be the effect or the level left; settings: probe midazolam, read-out: Activity
# [12] = target: T1, CYP2D6; assay: Inhibition of CYP2D6 in human liver microsomes assessed as enzyme-mediated metabolite formation at 30 uM using dextromethorphan as substrate preincubated for 20 mins followed by substrate addition measured after 30 mins in presence of NADPH by LC-MS/MS analysis relative to control; parameters: scale not given: the % may be the effect or the level left; settings: probe dextromethorphan, read-out: Activity
# T1 sequence (P10635 whole entry): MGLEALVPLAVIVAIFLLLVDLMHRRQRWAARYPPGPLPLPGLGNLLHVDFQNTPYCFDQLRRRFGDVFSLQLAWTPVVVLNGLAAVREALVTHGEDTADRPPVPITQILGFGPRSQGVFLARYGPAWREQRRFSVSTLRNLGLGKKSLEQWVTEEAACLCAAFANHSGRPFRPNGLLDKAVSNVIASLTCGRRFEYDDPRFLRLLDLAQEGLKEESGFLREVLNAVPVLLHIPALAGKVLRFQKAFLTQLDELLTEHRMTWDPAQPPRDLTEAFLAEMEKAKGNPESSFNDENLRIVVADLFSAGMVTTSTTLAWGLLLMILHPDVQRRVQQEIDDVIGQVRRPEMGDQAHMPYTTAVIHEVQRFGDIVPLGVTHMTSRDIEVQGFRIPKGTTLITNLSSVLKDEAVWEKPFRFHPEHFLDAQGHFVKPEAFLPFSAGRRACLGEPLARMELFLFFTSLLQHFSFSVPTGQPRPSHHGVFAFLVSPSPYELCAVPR
# T4 sequence (P11712 whole entry): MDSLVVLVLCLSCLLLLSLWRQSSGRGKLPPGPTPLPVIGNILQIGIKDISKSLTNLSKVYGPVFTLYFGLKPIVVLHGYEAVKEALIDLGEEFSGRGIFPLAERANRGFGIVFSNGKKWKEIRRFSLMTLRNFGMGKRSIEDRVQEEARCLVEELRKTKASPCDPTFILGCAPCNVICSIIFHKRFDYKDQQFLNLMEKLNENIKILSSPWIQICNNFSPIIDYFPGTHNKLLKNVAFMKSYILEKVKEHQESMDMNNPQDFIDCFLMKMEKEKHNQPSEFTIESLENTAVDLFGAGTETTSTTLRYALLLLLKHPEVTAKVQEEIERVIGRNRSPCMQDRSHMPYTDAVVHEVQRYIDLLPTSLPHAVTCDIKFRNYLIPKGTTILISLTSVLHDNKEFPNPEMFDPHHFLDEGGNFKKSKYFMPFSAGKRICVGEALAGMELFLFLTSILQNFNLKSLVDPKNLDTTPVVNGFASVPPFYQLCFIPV
# T5 sequence (P08684 whole entry): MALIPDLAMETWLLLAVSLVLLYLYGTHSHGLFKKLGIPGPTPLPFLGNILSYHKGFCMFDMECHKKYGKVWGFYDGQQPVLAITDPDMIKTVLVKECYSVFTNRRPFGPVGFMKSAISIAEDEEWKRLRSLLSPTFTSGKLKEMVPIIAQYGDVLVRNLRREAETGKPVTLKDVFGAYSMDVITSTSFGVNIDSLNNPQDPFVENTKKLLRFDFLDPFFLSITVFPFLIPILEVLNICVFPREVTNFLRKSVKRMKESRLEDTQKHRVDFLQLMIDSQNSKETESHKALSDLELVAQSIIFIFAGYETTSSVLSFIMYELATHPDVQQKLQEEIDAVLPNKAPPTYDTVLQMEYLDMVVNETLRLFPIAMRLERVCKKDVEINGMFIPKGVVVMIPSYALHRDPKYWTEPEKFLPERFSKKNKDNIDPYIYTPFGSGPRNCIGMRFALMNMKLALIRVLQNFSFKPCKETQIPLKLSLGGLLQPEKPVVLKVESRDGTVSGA
# Chain of Cytochrome P450 2C9 (P11712 whole entry): as the sequence (P11712 whole entry) above
# Chain of CYP2C19 (P33261 whole entry): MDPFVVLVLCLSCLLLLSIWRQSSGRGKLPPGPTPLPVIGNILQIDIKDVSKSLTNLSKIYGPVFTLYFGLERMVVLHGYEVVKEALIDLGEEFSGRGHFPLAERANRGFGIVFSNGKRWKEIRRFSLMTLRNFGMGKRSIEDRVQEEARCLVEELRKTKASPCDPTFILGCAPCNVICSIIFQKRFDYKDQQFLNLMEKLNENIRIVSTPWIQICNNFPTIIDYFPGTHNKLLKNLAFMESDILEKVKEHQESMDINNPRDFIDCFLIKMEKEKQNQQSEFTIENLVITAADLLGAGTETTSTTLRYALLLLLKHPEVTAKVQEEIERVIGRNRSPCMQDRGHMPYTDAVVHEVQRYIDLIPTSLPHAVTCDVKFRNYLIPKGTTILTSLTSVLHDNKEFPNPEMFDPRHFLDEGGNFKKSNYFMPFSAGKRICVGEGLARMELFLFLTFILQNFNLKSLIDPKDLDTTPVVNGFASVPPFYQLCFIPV
# Chain of Cytochrome P450 3A4 (P08684 whole entry): as the sequence (P08684 whole entry) above
smiles,measurement,setting,value
CCCCCCCC(=O)CCc1ccc(O)c(OC)c1,"activity at 0.5 h, 3 µM",[1],74.6%
same,"activity at 0.5 h, 30 µM",[2],79.9%
same,"activity at 0.5 h, 30 µM",[3],53.8%
same,IC50,[4],> 30 µM
same,IC50,[5],7.1 µM
same,"activity at 0.5 h, 10 µM",[6],60.8%
same,"activity at 0.5 h, 0.1 µM",[7],100%
same,"activity at 0.5 h, 0.3 µM",[8],72.6%
same,IC50,[9],13.6 µM
same,"activity at 0.5 h, 0.1 µM",[10],98.4%
same,"activity at 0.5 h, 10 µM",[11],110%
same,"activity at 0.5 h, 30 µM",[12],80.1%
